# What was measured:
# lungs of mice = experiment: CAT assay, parts B and C: intra-nasal, pCF1/CAT or pCF2/CAT vectors; details: mouse
# Description: That the novel amphiphiles of the invention are an important contribution to the art is immediately seen by comparing their performance—as in vivo transfection enhancers—to that of closely related cationic amphiphiles that lack the novel T-shape. It has been determined that spermidine cholesterol carbamate provides a much greater level of enhancement than N^1-spermidine cholesteryl carbamate which contains the same number of carbon and nitrogen atoms in its cationic alkylamine component but which is linear and not “T-shaped”. Following generally the procedures of Example 3, part B, and using respectively 6 mM (as nucleotide), 1.5 mM, and 1.5 mM concentrations of DNA, amphiphile and of co-lipid, the transfection enhancement provided by spermidine cholesterol carbamate (amphiphile No.53), in relation to N^1-spermidine cholesteryl carbamate, was determined to be about 30 fold.
# Also following the procedures of Example 3, part B, and using respectively 4 mM (as nucleotide), 1 mM, and 2 mM concentrations of DNA, amphiphile and co-lipid, the transfection enhancement provided by spermine cholesterol carbamate (amphiphile No. 67)—in relation to N^1-thermospermine cholesteryl carbamate and N^1-spermine cholesteryl carbamate to which spermine cholesterol carbamate is similarly related—is at least about 30 fold.
# [1] = Transacylation reaction of amphiphile with co-lipid DOPE on co-storage; type: physicochemical
# Description: Although heretofore unrecognized in the art, it has been determined also that certain co-lipids may react chemically with certain types of cationic amphiphiles under conditions of co-storage, there resulting new molecular species. Generation of such new species is believed to occur via mechanisms such as transacylation. In this regard, see FIG. 4 which depicts a transacylation reaction involving spermine cholesterol carbamate (No.67) and DOPE, there resulting lyso PE species and multiple forms of particular acyl-cationic amphiphile (designated No. 80).
# It is expected that these phenomena would also apply to lyophilized amphiphile/DOPE preparations.
# Accordingly, it is highly preferred to maintain such amphiphile/DOPE preparations at very cold temperatures, such as −70 degrees C.
# [2] = Transgene expression by protonation state of the amphiphile in transfecting composition with DOPE; details: amphiphile as free base; with DOPE zwitterion; plasmid DNA sodium salt in water
# Description: An additional aspect of the invention concerns the protonation state of the cationic amphiphiles of the invention prior to their contacting plasmid DNA in order to form a therapeutic composition. It is within the practice of the invention to utilize fully protonated, partially protonated, or free base forms of the amphiphiles in order to form such therapeutic compositions. With respect to amphiphile No. 67 (spermine cholesterol carbamate), it has been observed that when providing this amphiphile for a transfecting composition with DOPE (itself provided as a zwitterion), transgene expression was best for the free base, but decreased if the amphiphile was prepared as an acetate salt. […] Under the circumstances described, the plasmid DNA provided for contacting with the amphiphile was prepared (without buffer) as a sodium salt in water.
# lungs of balb/c mice = tested on: lungs of balb/c mice
# Experimental: This assay was used to assess the ability of the cationic amphiphiles of the invention to transfect cells in vivo from live specimens. In the assay, the lungs of balb/c mice were instilled intra-nasally (the procedure can also be performed trans-tracheally) with 100 μl of cationic amphiphile:DNA complex, which was allowed to form during a 15-minute period prior to administration according to the following procedure. The amphiphile (premixed with co-lipid, see below) was hydrated in water for 10 minutes, a period sufficient to yield a suspension at twice the final concentration required. This was vortexed for two minutes and aliquoted to provide 55 microliter quantities for each mouse to be instilled. Similarly, DNA encoding the reporter (CAT) gene was diluted with water to a concentration twice the required final concentration, and then aliquoted at 55 microliters for each mouse to be instilled. The lipid was gently combined with the DNA (in a polystyrene tube), and the complex allowed to form for 15 minutes before the mice were instilled therewith.
# The plasmid used (pCMVHI-CAT, see Example 4) provides an encoding DNA for chloramphenicol transferase enzyme. Specifics on the amphiphile:DNA complexes are provided below.
# Two days following transfection, mice were sacrificed, and the lungs and trachea removed, weighed, and homogenized in a buffer solution (250 mM Tris, pH 7.8, 5 mM EDTA). The homogenate was darifed by centrifugation, and the deacetylases therein were inactivated by heat treatment at 70° C. for 10 minutes. Lysate was incubated overnight with acetyl coenzyme A and C^14-chloramphenicol. CAT enzyme activity was then visualized by thin layer chromatography (“TLC”) following an ethyl acetate extraction.
# The presence of the enzyme CAT will cause an acetyl group to be transferred from acetyl coenzyme A to C^14-chloramphenicol. The acetylated/radiolabeled chloramphenicol migrates faster on a TLC plate and thus its presence can be detected.
# With respect to the comparison provided by FIG. 10, the following conditions are of note. The transfection solution for spermidine cholesterol carbamate contained 6 mM DNA measured as concentration of nucleotide, and 1.5 mM of cationic amphiphile. […] For transfection with DC-chol, the molar ratio of DC-chol to DOPE was 3:2, and the concentrations of cationic amphiphile and of DNA (as nucleotide) were 1.3 mM and 0.9 mM, respectively. For transfection with DMRIE, the molar ratio of DMRIE to DOPE was 1:1 and the concentrations of cationic amphiphile and of DNA were 1.7 mM and 12 mM, respectively.
# [3] = tested on: CFT-1 cell line (human cystic fibrosis bronchial epithelial cells); experiment: Cell transfection assay (β-galactosidase expression); type: cell-based; details: 1:1 mixture with DOPE, pCMVβ
# [4] = tested on: Immortalized human cystic fibrosis airway cells (CFT-1); experiment: SPQ assay of cAMP-stimulated Cl− channel activity after pCMV-CFTR transfection; type: cell-based
# Experimental: Immortalized human cystic fibrosis airway cells (CFT-1, as above) were used.
# In preparation for the assay, the cells were grown on glass coverslips until approximately 60% confluent The cells were hen transfected with a complex of spermidine cholesterol carbamate:DOPE (1:1) and a plasmid(pCMV-CFTR) containing a cDNA that encodes wild type human CFTR pCMV-CFTR plasmid is a construct containing the encoding sequence for CFTR and the following regulatory elements, a CMV promoter and enhancer, and an SV40 polyadenylation signal. Additional constructs suitable for the practice of this example include pMT-CFTR, Cheng et al., Cell, 63,827-834 (1990). The complex used was 10.5 μmolar of spermidine cholesterol carbamate (also of DOPE) and 30 μmolar of pCMV-CFTR based on nucleotide.
# 48 hours after amphiphile-mediated transfection, cells were tested for cAMP-stimulated Cl^− channel activity using the 6-methoxy-N-(3-sulfopropyl)quinolinium (“SPQ”) assay. […] In the assay, cAMP-dependent Cl^− channel activity was assessed using “SPQ” (from Molecular Probes, Eugene, Oreg.), a halide-sensitive fluorophore. Increases in halide permeability results in a more rapid increase in SPQ fluorescence, and the rate of change (rather than the absolute change in fluorescence) is the important variable in assessing Cl^− permeability. […]
# [5] = tested on: Primary nasal polyp cells from a cystic fibrosis patient (Δ F508); experiment: cAMP-stimulated transepithelial chloride secretion in modified Ussing chamber after pCMV-CFTR transfection; type: cell-based, human; details: 1:1 with DOPE; 42 μmolar amphiphile, 60 μmolar pCMV-CFTR; forskolin and IBMX
# Experimental: Primary (non-immortalized) nasal polyp cells from an adult cystic fibrosis patient (homozygous for the Δ F508mutation) were grown on collagen-coated permeable filter supports (Millicells) to form a polarized and confluent epithelial monolayer. Once the monolayer was electrically tight (about 5 to 7 days post seeding, and as indicated by the development of resistance across the cell sheet), the apical surface can be exposed to formulations of cationic amphiphile: DNA complex.
# In this case, the amphiphile (spermidine cholesterol carbamate) was provided as a 1:1 (by mole) mixture with DOPE, and this mixture was then complexed with pCMV-CFTR plasmid vector (a construct encoding wild type human cystic fibrosis transmembrane conductance regulator protein, see above). Concentrations in the final mixture were 42 μmolar of spermidine cholesterol carbamate (and also of DOPE) and 60 μmolar (based on morality in nucleotides) of the plasmid expression vector.
# Expression of CFTR was determined by measuring cAMP-stimulated transepithelial chloride secretion in a modified Ussing chamber, Zabner et al., Nature Genetics, 6, 75-83 […]. The mucosal side of the epithelium was bathed in Ringer's bicarbonate solution bubbled with 95% O2 and 5% CO2. […] Transepithelial voltage was clamped to 0 m V and short circuit current was recorded. […]
# lung and heart = experiment: Intravenous delivery of pCF-1CAT complex, CAT expression in organs; type: in vivo, BALB/c mouse; details: for organ distribution of CAT expression: DNA 0.9 mM, i.v. tail vein, 48 h
# Experimental: The reporter plasmid pCF-1CAT (Example 4) was used and was purified to minimize endotoxin (<1 EU/mg pDNA), and also chromosomal DNA contamination (<2%). Amphiphile No. 53 (1:1 with DOPE)/DNA complex was prepared according to the procedures of Example 3. The amphiphile was provided as the free base, the plasmid was prepared as a sodium salt in water, and the DOPE was provided in zwitterionic form.
# The animal model was the BALB/c mouse. Females 6-8 weeks old weighing 16-18 g were injected intravenously using the tail vein, using 5 animals per group. The volume of lipid:pDNA complex used was 100 μl in all experiments. Unless noted otherwise, mice were sacrificed 48 h following administration of the complex. Organs were frozen immediately on dry ice to store for subsequent analysis.
# Expression of chloramphenicol acetyl transferase (CAT) was quantitated using a radiochemical assay for CAT enzymatic activity. Organs Were weighed and homogenized on ice in a lysis buffer containing protease inhibitors. The lysate was freeze-thawed 3×, centrifuged, and heated to 65° C. to inactivate deacetylases before adding it to a reaction mixture containing ^14C-chloraamphenicol. After an incubation at 37° C., the mixture was extracted with ethyl acetate, concentrated, spotted onto TLC plates and eluted with CHCl3/MeOH. Spots corresponding to the acylated reaction products were quantitated (Betagen) and converted to ng CAT activity using authentic CAT standards.
# [6] = Excipient selection against amphiphile/DNA aggregate formation; type: physicochemical; details: particularly as DNA concentration is increased
# Description: Additionally, the therapeutic compositions of the invention can in general be formulated with excipients (such as the carbohydrates lactose, trehalose, sucrose, mannitol, maltose or galactose) and may also be lyophilized (and then rehydrated) in the presence of such excipients prior to use. Conditions of optimized formulation for each amphiphile of the invention are capable of determination by those skilled in the pharmaceutical art. […] Addition of such excipients maintains the consistency of lyophilized pharmaceutical compositions during storage, and prevent difficulties such as aggregation, or insolubity, that may likely occur upon rehydration from the lyophilized state.
# [7] = 1.0-1.5 mM amphiphile, cholesterol 1:1, DNA 4.0-6.0 mM, intra-nasal
compound,measurement,setting,value
"CC(C)CCCC(C)C1CCC2C3CC=C4CC(OC(=O)N(CCCN)CCCCNCCCN)CCC4(C)C3CCC12C (stereo not drawn) [amphiphile No. 67, N^4-spermine cholesteryl carbamate]",activity of amphiphile (in vivo transfection),lungs of mice,highly active
same,in vivo transfection in comparison with non T-shaped amphiphiles having equivalent cationic alkylamine structure,lungs of mice,superior transfectants
same,transacylation with DOPE,"[1]; amphiphile as mono, di, or tri acetate salt",slow transacylations
same,transacylation with DOPE,[1]; aqueous solution where bilayer-containing structures such as liposomes can form,will permit transacylation
same,transacylation with DOPE,[1]; mixture of amphiphile and DOPE in chloroform solvent,does not appear to participate
same,transgene expression,[2],best
"1,2-dimyristyloxypropyl-3-dimethyl-hydroxyethyl ammonium bromide [DMRIE, reference compound]",CAT activity in lung,"lungs of balb/c mice; 1:1 molar with DOPE, 1.7 mM DMRIE, 1.7 mM DOPE, 1.2 mM plasmid DNA as nucleotide",1 to 2 ng activity per 100 mg lung tissue
"CC(C)CCC[C@@H](C)[C@H]1CC[C@H]2[C@@H]3CC=C4C[C@@H](OC(=O)N(CCCCNCCCN)CCCNCCCN)CC[C@]4(C)[C@H]3CC[C@]12C [amphiphile No. 75, N^1,N^8-Bis(3-aminopropyl)-N^4-spermidine cholesteryl carbamate]",activity of amphiphile (in vivo transfection),lungs of mice,highly active
"CC(C)CCCC(C)C1CCC2C3CC=C4CC(OC(=O)N(CCCN)CCCCN)CCC4(C)C3CCC12C (stereo not drawn) [amphiphile No. 53, N^4-spermidine cholesteryl carbamate]","transfection efficiency improved by a factor, relative to DMRIE:DOPE (1:1)",[3],about 5
same,transferring CFTR-encoding plasmid into immortalized CF airway cells,[4],effective
same,enhancement of in vivo transfection (ng CAT activity per 100 mg tissue) in relation to DMRIE and DC-Chol,"lungs of balb/c mice; 1.5 mM amphiphile, 1:1 DOPE, 6 mM DNA (nucleotide), intra-nasal, 2 days",≥ 20 fold
same,"transfection efficiency (ng CAT/100 mg tissue) with cholesterol as co-lipid, compared with DOPE as co-lipid",lungs of balb/c mice; [7],less effective
same,"transfection with cholesterol as co-lipid, compared with DC-Chol/DOPE",lungs of balb/c mice; [7],substantially more effective
same,toxicity to the target cells,"lungs of balb/c mice; about 0.75 mM amphiphile and 3.0 mM plasmid, versus the optimal 1.5 mM/6 mM",less toxic
same,activity of amphiphile (in vivo transfection),lungs of mice,highly active
same,in vivo transfection in comparison with non T-shaped amphiphiles having equivalent cationic alkylamine structure,lungs of mice,superior transfectants
same,cAMP-stimulated current,[5],0.5 to 2.5 μampere/cm^2
same,organ distribution of CAT expression,lung and heart; amphiphile/DNA molar ratio less than about 0.5,strongly weighted toward the lung
same,organ distribution of CAT expression,lung and heart; amphiphile/DNA ratio of 1.25,substantial expression was found in the heart
same,targeting to the lung over a range of amphiphile/DNA ratios,"lung and heart; constant DNA concentration 0.9 mM, i.v.",remained relatively constant
same,excipient preferred to prevent formation of amphiphile/DNA aggregates,[6],sucrose is preferred over mannitol

# Source: US6383814B1, “Cationic amphiphiles for intracellular delivery of therapeutic molecules” (Genzyme Corporation, priority 1994, dated 2002)
